Measured values as given in patent publication US12552815B2, “Boronic acid derivatives and synthesis, polymorphic forms, and therapeutic uses thereof” (QPEX BIOPHARMA, INC., priority 2020, dated 2026).

Test: Dynamic vapor sorption (DVS) analysis
Type: physicochemical
Settings: for hygroscopicity / water uptake by dynamic vapor sorption (DVS): 25° C., 10% RH steps from 5 to 95% RH and from 95 to 5% RH
Method: DVS analysis was carried out using a TA Instruments Q5000 Dynamic Vapor Sorption analyzer. The instrument was calibrated with standard weights and a sodium bromide standard for humidity. Approximately 20 mg of sample was loaded into a metal-coated quartz pan for analysis. The sample was analyzed at 25° C. with a maximum equilibration time of one hour in 10% relative humidity (RH) steps from 5 to 95% RH (adsorption cycle) and from 95 to 5% RH (desorption cycle). The movement from one step to the next occurred either after satisfying the equilibrium criterion of 0.01% weight change or, if the equilibrium criterion was not met, after one hour. The percent weight change values were calculated using Microsoft Excel®. The temperature for the DVS analysis can impact the outcome of the results.
Differential Scanning Calorimetry (5° C./min), Thermogravimetric analysis (5° C./min), and Dynamic Vapor Sorption (stepwise RH decrease from 45% to 0% at 50° C.) data for highly crystalline Form A of Compound I′ prepared analogously to the crystallization method above is shown in FIGS. 27-29, respectively.

Structure (SMILES) | hygroscopicity / water uptake by dynamic vapor sorption (DVS) | gain/loss of water by dynamic vapor sorption (DVS), highly crystalline sample (relative humidity range of 5% to 75%, FIG. 29, stepwise RH decrease from 45% to 0% at 50° C.)
CCOC(=O)c1c(F)ccc2c1O[B-]1(O[C@@H](c3ccccc3)[C@H](C)[NH+]1C)[C@@H]1C[C@H]21 (stereo partly shown) [Compound A-4] | not hygroscopic | –
CCOC(=O)c1c(F)ccc2c1O[B-]1(C=C2)O[C@@H](c2ccccc2)[C@H](C)[NH+]1C (stereo partly shown) [Compound A-3, pseudoephedrine complex of ethyl 7-fluoro-2-hydroxy-2H-benzo[e][1,2]oxaborinine-8-carboxylate] | not hygroscopic | –
O=C([O-])c1c(F)ccc2c1O[B-](O)(O)[C@@H]1C[C@H]21.[Na+].[Na+] [Form A of Compound I′] | hygroscopic | resists gain/loss of water
